Here are results for two substances from patent US20090304674A1, “METHODS FOR TREATING DISEASE BY REGULATING CLL CELL SURVIVAL” (priority 2005, published 2009).

“Also recorded” adds a separate entry of the source.

Common to all, as to assay type: cell-based, human
The test system of assay [1] is NF-κB2/p100 pathway in CLL B cells. In words: Immunoblot of alternative NF-κB2 pathway activation (p100 to p52, p52 nuclear translocation) in CLL B cells. The settings on record: concentrations that promote CLL cell survival; rhBAFF 50 ng/ml, rhAPRIL 500 ng/ml, 24 hours. The method, then:
(§1) Cell lysates were prepared with RIPA buffer (10 mM Tris (pH 7.4), 150 mM NaCl, 1% Triton x 100, 1% deoxycholate, 0.1% SDS, 5 mM EDTA), containing 1 mM PMSF, 0.28 TIU/ml aprotinin, 50 μg/ml leupeptin, 1 mM benzamidine, 0.7 μg/ml pepstatin. Lysates were normalized for total protein (20 μg), subjected to SDS-PAGE (4-15% gradient gels, Bio-Rad, Hercules, Calif.) and immunoblot assay. We incubated the blots with secondary antibodies that were conjugated with horseradish peroxidase. Blots then were prepared for enhanced chemiluminescence (ECL) detection system (Amersham, Little Chalfont, Buckinghamshire, UK) and subsequent autoradiography with Super RX film (Fuji, Tokyo, Japan). The mouse mAb against APRIL (APRIL8) was from Alexis Biochemicals. The mouse mAb against inhibitor of kappa B-α (IκκBα was from Imgenex (San Diego, Calif.). The antibodies against anti-phosho-MAP kinase Erk1/2 and anti-MAP kinase Erk1/2-CT were purchased from Upstate Biotechnology. Antibodies against AKT or phospho-AKT (Ser473) were from Cell Signaling (Beverly, Mass.). Rabbit polyclonal antibodies (Mcl-1, Bcl-2, and Bax) were raised against synthetic peptides.21 Also primary antibodies included β-actin (Sigma Immunochemicals, St Louis, Mo.). Anti-p52 and anti-p65 antibodies were purchased from Upstate Biotechnology.
For fractionation experiments, cells were collected by centrifugation and washed with PBS. The cell pellet containing 5×10^6 cells was suspended in 100 μl of hypotonic buffer (50 mM Tris (pH7.4), 5 mM EDTA, 10 mM NaCl, 0.05% NP-40, 1 mM PMSF, 10 μg/ml Aprotinin, 10 μg/ml Leupeptin, 10 μg/ml Pepstatin, 10 mM β-Glycerophosphate, 1 mM Na-Vanadate, 1 mM NaF). After 10 minutes the lysate was spun and the supernatant was collected as cytoplasmic lysates. The pellet was washed 5 times in hypotonic buffer containing 0.1% NP-40. The remaining pellet was suspended in 100 μl RIPA buffer containing protease and phosphatase inhibitors. […]

Assay [2] concerns NF-κB1 binding activity in CLL cells. In words: Electrophoretic mobility shift assay of NF-κB DNA binding in nuclear extracts of CLL cells. To be noted: rhBAFF 50 ng/ml or rhAPRIL 500 ng/ml, 24 hours. The procedure: Nuclear proteins were extracted using a nuclear extraction kit (Pierce, Rockford, Ill.) in presence of 1× complete protease inhibitor cocktail (Roche diagnostics). Total protein was measured using a modified Bradford test (Bio-Rad, Hercules, Calif.). 2 μg of nuclear protein extracts were incubated on ice for 30 min with antibodies to p50 and p65 (Santa Cruz Biotechnology). Later, a radiolabeled double stranded probe that encompassed the κB1 site was added, followed by incubation at room temperature for 30 min. Samples were loaded on a 6% acrylamide gel and run at 150 volts for three and a half hours.

Another assay has as its system AKT in CLL B cells. In words: Immunoblot of AKT (Ser473) phosphorylation in CLL B cells. The settings on record: 3 or 10 minutes; SDF-1α 200 ng/ml, rhBAFF 50 ng/ml. The method, then:
as §1

Assay [3] has as its system p44/42 MAPK (ERK1/2) in CLL B cells. The assay is described as follows: Immunoblot of ERK1/2 phosphorylation in CLL B cells. To be noted: 3 or 10 minutes; SDF-1α 200 ng/ml, rhBAFF 50 ng/ml. The procedure:
as §1

For a further assay, the system named is transfected CLL cells. In words: Viability of CLL cells transfected with SR-IκBα or control vector (Amaxa nucleofection). To be noted: rhBAFF 50 ng/ml or rhAPRIL 500 ng/ml for 24 hours, added four hours after transfection. The procedure:
(§2) Freshly thawed CLL B cells were cultured at the concentration of 1×10^6/mL under various conditions. Determination of CLL cell viability in this study was based on the analysis of mitochondrial transmembrane potential (Δψm) using 3,3′-dehexyloxacarbocyamine iodine (DiOC6) and cell membrane permeability to PI, as described. For viability assays, 100 μl of the cell culture was collected at the indicated time points and transferred to polypropylene tubes containing 100 μl of 80 nmol/l DiOC6 (Molecular Probes) and 2 μg/ml PI in FACS buffer. The cells then were incubated at 37° C. for 15 minutes and analyzed within 30 minutes by flow cytometry using a FACSCalibur (Becton Dickinson). Fluorescence was recorded at 525 nm (FL-1) for DiOC6 and at 600 nm (FL-3) for PI.
CLL cells were transfected using the Amaxa nucleofection technology (Amaxa). Cells were resuspended in solution from human B cell nucleofector kit, also available as part of Amaxa cell optimization kit, according to the manufacturer's instructions. Briefly, 100 μl of 5×10^6 cell suspension mixed with 5 μg cDNA was transferred to the provided cuvette and nucleofected with an Amaxa Nucleofector apparatus (Amaxa). Cells were transfected using the U-15 pulsing parameter and immediately transferred into wells containing 37° C. pre-warmed culture medium in 12-well plates. After transfection, cells were cultured from 4 to 48 hours before analyzing by FACS. pmaxGFP was used to gauge transfection efficiency.

The subject of the next assay is Mcl-1 in CLL B cells. In words: Immunoblot of Mcl-1 expression in CLL B cells. The settings on record: short-term culture of isolated CLL B cells. The procedure:
as §1

In assay [4] the test system is canonical NF-κB1 pathway in CLL B cells. The assay is described as follows: Immunoblot of canonical NF-κB1 pathway activation (IκBα degradation/phosphorylation, p65 nuclear translocation) in CLL B cells. The settings on record: concentrations that promote CLL cell survival; rhBAFF 50 ng/ml, rhAPRIL 500 ng/ml. The method, then: as §1
For fractionation experiments, cells were collected by centrifugation and washed with PBS. The cell pellet containing 5×10^6 cells was suspended in 100 μl of hypotonic buffer (50 mM Tris (pH7.4), 5 mM EDTA, 10 mM NaCl, 0.05% NP-40, 1 mM PMSF, 10 μg/ml Aprotinin, 10 μg/ml Leupeptin, 10 μg/ml Pepstatin, 10 mM β-Glycerophosphate, 1 mM Na-Vanadate, 1 mM NaF). After 10 minutes the lysate was spun and the supernatant was collected as cytoplasmic lysates. The pellet was washed 5 times in hypotonic buffer containing 0.1% NP-40. The remaining pellet was suspended in 100 μl RIPA buffer containing protease and phosphatase inhibitors. After an appropriate amount of 3× sample buffer (200 mM Tris (pH 6.8), 30 mM EDTA, 30% Glycerol, 6% SDS) was added, the sample was boiled for 10 minutes, spun for 10 minutes and the supernatant was recovered as nucleus lysates. Anti-NF kappa B p52 and p65 were purchased from Upstate Biotechnology. Anti-SP-1 was purchased from Santa Cruz Biotechnology (Santa Cruz, Calif.).
Cell lysates were prepared with radioimmunoprecipitation assay (RIPA) buffer (10 mM Tris [pH 7.4], 150 mM NaCl, 1% Triton X-100, 0.1% deoxycholate, 0.1% SDS, 5 mM EDTA), containing 1× complete protease inhibitor cocktail (Roche diagnostics), 1 mM sodium fluoride (NaF), and 1 mM sodium vanadate (Na3VO4). Lysates were normalized for total protein (25 μg) and subjected to SDS-PAGE (4-15% gradient gels, Bio-Rad, Hercules, Calif.) and immunoblot assay. We incubated the blots with secondary antibodies that were conjugated with horseradish peroxidase. Blots then were prepared for enhanced chemiluminescence (ECL) detection system (Amersham, Little Chalfont, United Kingdom) and subsequent autoradiography with Super RX film (Fuji, Tokyo, Japan).
For fractionation experiments, cells were collected by centrifugation and washed with PBS. The cell pellet containing 5×10^6 cells was suspended in 100 μl of hypotonic buffer (50 mM Tris [pH7.4], 5 mM EDTA, 10 mM NaCl, 0.05% Nonidet P40 [NP-40]), containing 1× complete protease inhibitor cocktail, 1 mM NaF, and 1 mM Na3VO4. After 10 minutes, the lysate was spun and the supernatant was collected as cytoplasmic lysates. […]

Assay [5] deals with isolated CD19+ CLL B cells. In words: Viability of isolated CLL B cells cultured without NLC (DiOC6/PI flow cytometry). The settings on record: rhBAFF 50 ng/ml, rhAPRIL 500 ng/ml; samples of 3 patients. The method, then:
as §2, with “of 1×10^6/ml” for “of 1×10^6/mL”, “as described.22” for “as described.”, “of 60” for “of 80”, “and 10” for “and 2”

For assay [6], the system named is Bcl-2, Bax, Bcl-xL in CLL B cells. In words: Immunoblot of Bcl-2, Bax, Bcl-xL expression in CLL B cells. To be noted: short-term culture of isolated CLL B cells. The procedure: as §1

Regarding “rhAPRIL: recombinant human a proliferation-inducing ligand, purchased from Alexis Biochemicals”, the “activation of NF-κB2 (processing of p100 to p52, translocation of p52 to the nucleus)” value in assay [1] is “did not observe activation of NF-κB2; also recorded: did not observe translocation of p52 to the nucleus”. The “NF-κB consensus motif binding proteins in nuclear extracts (EMSA)” value in assay [2] is reported as “increased amounts of proteins capable of binding NF-κB consensus motifs”. Also, the “induction of phosphorylation/activation of AKT (Ser473)” value in the assay with AKT in CLL B cells is listed as “could not induce”. In addition, in assay [3], the “induction of phosphorylation of ERK1/2” value is listed as “could not induce phosphorylation of p44/42 mitogen-activated phosphokinase (MAPK, ERK1/2)”. In the assay on transfected CLL cells, the “viability of CLL cells transfected with SR-IκBα” value is given as “had no effect on CLL cells transfected with SR-IκBα” and the “viability of CLL cells transfected with control expression plasmid” value is reported as “significantly enhanced the viability of the cells transfected with the control expression plasmid”. Besides, the “induction of Mcl-1 expression in CLL B cells” value with Mcl-1 in CLL B cells is “induced to express increased levels of Mcl-1”. Also, the “activation of classical/canonical NF-κB pathway (IκBα degradation, p65 translocation to nucleus)” value in assay [4] is “induced degradation of the inhibitor of kappa B (IκBα) and translocation of p65 to the nuclear fraction; also recorded: induced translocation of p65 to the nucleus”. In addition, the “viability of isolated CLL cells cultured without NLC versus control” value in assay [5] is given as “significant greater than that of control treated CLL cells; also recorded: significantly improved the viability of CLL cells”.

As for “rhBAFF: recombinant human B cell-activating factor of the TNF family”, the “activation of NF-κB2 (processing of p100 to p52, translocation of p52 to the nucleus)” value in [1] is “could induce activation of NF-κB2; also recorded: could induce translocation of p52 to the nucleus”. For the same substance, the “NF-κB consensus motif binding proteins in nuclear extracts (EMSA)” value in assay [2] is “increased amounts of proteins capable of binding NF-κB consensus motifs”. The “changes in levels of Bcl-2, Bax, or Bcl-xL” value in [6] is listed as “did not observe significant changes”. For the same substance, the “induction of phosphorylation/activation of AKT (Ser473)” value in the assay on AKT in CLL B cells is “could not induce”. Besides, the “induction of phosphorylation of ERK1/2” value in assay [3] is listed as “could not induce phosphorylation of p44/42 mitogen-activated phosphokinase (MAPK, ERK1/2)”. In addition, in the assay on transfected CLL cells, the “viability of CLL cells transfected with SR-IκBα” value was “had no effect on CLL cells transfected with SR-IκBα” and the “viability of CLL cells transfected with control expression plasmid” value is reported as “significantly enhanced the viability of the cells transfected with the control expression plasmid”. The “induction of Mcl-1 expression in CLL B cells” value in the assay with Mcl-1 in CLL B cells is given as “induced to express increased levels of Mcl-1”. Further, in [4], the “activation of classical/canonical NF-κB pathway (IκBα degradation, p65 translocation to nucleus)” value was “induced degradation of the inhibitor of kappa B (IκBα) and translocation of p65 to the nuclear fraction; also recorded: induced translocation of p65 to the nucleus”. Moreover, the “viability of isolated CLL cells cultured without NLC versus control” value in assay [5] was “significant greater than that of control treated CLL cells; also recorded: significantly improved the viability of CLL cells”.
